Values of other authors as cited in US20050191370A1, “Vitamin/metal salt compositions for reducing hair loss and/or promoting hair regrowth” (L'OREAL, priority 2000, published 2005).

Test system: lung cancers in smokers

In the case of CC1=C(/C=C/C(C)=C/C=C/C(C)=C/C=C/C=C(C)/C=C/C=C(C)/C=C/C2=C(C)CCCC2(C)C)C(C)(C)CCC1 [beta-carotene], the “decrease in the incidence of lung cancers” value (after 5 years of administration) is listed as “No decrease”, the additional deaths (men who received beta-carotene, population of 29,139 men who were smokers) is listed as 8% and the “increase in lung cancers” value (men who received beta-carotene, population of 29,139 men who were smokers, Finland) is listed as 18%.
